Tested on: mGluR2
Details: monkey thalamus, compound 2 0.5 mg/kg iv 10 min before tracer

In the case of `Cc1c(OCc2cccc(-c3ccc(C(=O)O)cc3)c2)cc2c(c1C)C(=O)C(C1CCCC1)C2` (stereo not shown) [Compound 2, Biphenyl-indanone A], the “enhancement of [18F]9 Logan VT after pretreatment” value is reported as ~ 3.3%.
